In this assay the test system is T-47D cells. Kind of assay: Caspase cascade activation (N-(Ac-DEVD)-N′-ethoxycarbonyl-R110 fluorogenic substrate) in T-47D cells. As to Caspase activity Ratio T-47D (24 hr): test concentration or dose not given here. As to Caspase activity Ratio T-47D (48 hr): test concentration or dose not given here. Format: cell-based, Human. As to conditions: T-47D; for Caspase activity Ratio T-47D (24 hr) / Caspase activity Ratio T-47D (48 hr): ratio of net RFU to control; for Ratio T-47D (48 hr): benzohydrazide analogs table.

Turning to `COc1ccc(N(C)c2nc(NCCO)nc3ccccc23)cc1` [Example 11, N^2-(2-Hydroxylethyl)-N^4-(4-methoxy-phenyl)-N^4-methyl-quinazoline-2,4-diamine], the “Caspase activity Ratio T-47D (24 hr)” value came out at 9.0 and the “Caspase activity Ratio T-47D (48 hr)” value came to 12.5.

In the case of `COc1c(Br)cc(N(C)c2nc(C)nc3ccc([N+](=O)[O-])cc23)cc1Br` [Example 115, (3,5-Dibromo-4-methoxy-phenyl)-(2-methyl-6-nitro-quinazolin-4-yl)-methyl-amine], the “Caspase activity Ratio T-47D (24 hr)” value is 1.0.

As for `CN(c1ccc([N+](=O)[O-])cc1)c1nc(Cl)nc2ccccc12` [Example 4, (2-Chloro-quinazolin-4-yl)-(4-nitro-phenyl)-methyl-amine], the “Caspase activity Ratio T-47D (24 hr)” value turned out to be 7.1.

Regarding `COc1ccc(N(C)c2nc(NCCN3CCOCC3)nc3ccccc23)cc1` [Example 14, N^4-(4-Methoxy-phenyl)-N^4-methyl-N^2-(2-morpholin-4-yl-ethyl)-quinazoline-2,4-diamine], the “Caspase activity Ratio T-47D (24 hr)” value is reported as 9.7 and the “Caspase activity Ratio T-47D (48 hr)” value was found to be 12.3.

As to `CNc1nc(N(C)c2ccc(OC)cc2)c2ccccc2n1` [Example 123, (2-Methylamino-quinazolin-4-yl)-(4-methoxy-phenyl)-methyl-amine], the “Caspase activity Ratio T-47D (24 hr)” value came out at 8.2.

Regarding `CN(c1ccc(OC(F)(F)F)cc1)c1nc(Cl)nc2ccccc12` [Example 5, (2-Chloro-quinazolin-4-yl)-(4-trifluoromethoxy-phenyl)-methyl-amine], the “Caspase activity Ratio T-47D (24 hr)” value is on record as 10.3.

For the molecule `CN(c1nc(Cl)nc2ccccc12)[C@H]1CC[C@@H](C)CC1` [Example 132, (2-Chloro-quinazolin-4-yl)-(cis-4-methylcyclohexyl)-methyl-amine], the “Caspase activity Ratio T-47D (24 hr)” value came to 1.2.

`Cc1nc(N(C)c2ccncc2)c2ccccc2n1` [Example 136, (2-Methyl-quinazolin-4-yl)-(pyridin-4-yl)-methyl-amine]: the “Caspase activity Ratio T-47D (24 hr)” value turned out to be 1.2.

Take `COc1ccc(N(C)c2nc(C)nc3cc([N+](=O)[O-])ccc23)cc1` [Example 112, (4-Methoxy-phenyl)-methyl-(2-methyl-7-nitro-quinazolin-4-yl)-amine]: the “Caspase activity Ratio T-47D (24 hr)” value is reported as 1.0.

As to `CSc1nc(N(C)NC(=O)c2ccccc2)c2ccccc2n1` [N′-methyl-N′-(2-(methylthio)quinazolin-4-yl)benzohydrazide], the “Ratio T-47D (48 hr)” value came out at 14.7.

Regarding `Cc1nc(Nc2ccncc2)c2ccccc2n1` [Example 135, (2-Methyl-quinazolin-4-yl)-(pyridin-4-yl)-amine], the “Caspase activity Ratio T-47D (24 hr)” value was 1.2.

For the molecule `COc1cccc(Nc2nc(Cl)nc3ccccc23)c1` [Example 32, (2-Chloro-quinazolin-4-yl)-(3-methoxy-phenyl)-amine], the “Caspase activity Ratio T-47D (48 hr)” value came out at 1.0.

In the case of `COc1ccc(Nc2nc(Cl)nc3ccccc23)c(OC)c1` [Example 30, (2-Chloro-quinazolin-4-yl)-(2,4-dimethoxy-phenyl)-amine], the “Caspase activity Ratio T-47D (48 hr)” value is recorded as 1.0.

As for `COc1ccc(Oc2ncnc3ccccc23)cc1` [Example 71, 4-(4-Methoxy-phenoxy)-quinazoline], the “Caspase activity Ratio T-47D (48 hr)” value amounted to 6.9.

Consider `Cc1nc(N(C)c2cnccn2)c2ccccc2n1` [Example 134, (2-Methyl-quinazolin-4-yl)-(pyrazin-2-yl)-methyl-amine], for which the “Caspase activity Ratio T-47D (24 hr)” value is on record as 1.2.

With `COc1ccc(N(C)c2nc(C)nc3cc(N=[N+]=[N-])ccc23)cc1` [Example 114, (7-Azido-2-methyl-quinazolin-4-yl)-(4-methoxy-phenyl)-methyl-amine], the “Caspase activity Ratio T-47D (24 hr)” value came out at 7.2.

Consider `COc1ccc(N(C)c2nc(N(C)c3ccc(OC)cc3)c3c(Cl)cccc3n2)cc1` [Example 63, 5-Chloro-N^2,N^4-bis-(4-methoxy-phenyl)-N^2,N^4-dimethyl-quinazoline-2,4-diamine], for which the “Caspase activity Ratio T-47D (48 hr)” value was 10.9.

`COc1ccc(N(C)c2nc(C)nc3ccccc23)nn1` [Example 125, (6-Methoxy-pyridazin-3-yl)-(2-methyl-quinazolin-4-yl)-methyl-amine]: the “Caspase activity Ratio T-47D (24 hr)” value was 8.3.

On to `COc1ccc(N(C)c2nc(C)nc3ccccc23)c(F)c1` [Example 99, (2-Fluoro-4-methoxy-phenyl)-(2-methyl-quinazolin-4-yl)-methyl-amine], for which the “Caspase activity Ratio T-47D (24 hr)” value worked out at 6.9.

Consider `COc1ccc(N(C)c2nc(N(C)c3ccc(OC)cc3)c3cc(Cl)ccc3n2)cc1` [Example 61, 6-Chloro-N^2N^4-bis-(4-methoxy-phenyl)-N^2,N^4-dimethyl-quinazoline-2,4-diamine], for which the “Caspase activity Ratio T-47D (48 hr)” value came to 9.2.

As to `CN(c1nc(Cl)nc2ccccc12)[C@H]1CC[C@H](C)CC1` [Example 133, (2-Chloro-quinazolin-4-yl)-(trans-4-methylcyclohexyl)-methyl-amine], the “Caspase activity Ratio T-47D (24 hr)” value is reported as 1.2.

For `COc1ccc(C(=O)NN(C)c2nc(C(F)(F)F)nc3ccccc23)cc1` [N′-(2-(trifluoromethyl)quinazolin-4-yl)-4-methoxy-N′-methylbenzohydrazide], the “Ratio T-47D (48 hr)” value is listed as 13.1.

Regarding `COc1ccc(N(C)c2nc(C)nc3ccc(N=[N+]=[N-])cc23)cc1` [Example 111, (6-Azido-2-methyl-quinazolin-4-yl)-(4-methoxy-phenyl)-methyl-amine], the “Caspase activity Ratio T-47D (24 hr)” value is reported as 9.4.

Consider `COc1ccc(Nc2nc(C)nc3ccccc23)cn1` [Example 95, (2-Methyl-quinazolin-4-yl)-(6-methoxy-pyridin-3-yl)-amine], for which the “Caspase activity Ratio T-47D (24 hr)” value came to 1.0.

For the molecule `CN(c1ccc2c(c1)OCO2)c1nc(Cl)nc2ccccc12` [Example 67, (2-Chloro-quinazolin-4-yl)-(3,4-methylenedioxyphenyl)-methyl-amine], the “Caspase activity Ratio T-47D (48 hr)” value amounted to 12.5.

Consider `CN(c1ccc(Oc2ccccc2)cc1)c1nc(Cl)nc2ccccc12` [Example 69, (2-Chloro-quinazolin-4-yl)-(4-phenoxy-phenyl)-methyl-amine], for which the “Caspase activity Ratio T-47D (48 hr)” value was 1.

Regarding `COc1ccc(N(C)c2nc(NCCO)nc3ccccc23)cn1` [Example 48, N^2-(2-Hydroxyethyl)-N^4-(6-methoxypyridin-3-yl)-N^4-methyl-quinazoline-2,4-diamine], the “Caspase activity Ratio T-47D (48 hr)” value was found to be 12.5.

As for `COc1ccc(N(C)c2nc(Cl)nc3cccc(C)c23)cc1` [Example 58, (2-Chloro-5-methyl-quinazolin-4-yl)-(4-methoxy-phenyl)-methyl-amine], the “Caspase activity Ratio T-47D (48 hr)” value is given as 10.8.

As to `COc1ccc(N(C)c2nc(Cl)nc3ccc(C)cc23)cc1` [Example 56, (2-Chloro-6-methyl-quinazolin-4-yl)-(4-methoxy-phenyl)-methyl-amine], the “Caspase activity Ratio T-47D (48 hr)” value worked out at 4.9.

For `Cc1ccc(Nc2nc(Cl)nc3ccccc23)cc1` [Example 8, (2-Chloro-quinazolin-4-yl)-(4-methyl-phenyl)-amine], the “Caspase activity Ratio T-47D (24 hr)” value is 1.0.

As for `CCOc1ccc(Nc2nc(C)nc3ccccc23)cc1` [Example 106, (4-Ethoxy-phenyl)-(2-methyl-quinazolin-4-yl)-amine], the “Caspase activity Ratio T-47D (24 hr)” value stood at 1.1.

Regarding `COc1ccc(N(C)c2ccnc3ccccc23)cc1` [Example 66, (4-Methoxy-phenyl)-methyl-(quinolin-4-yl)-amine], the “Caspase activity Ratio T-47D (24 hr)” value is listed as 7.2 and the “Caspase activity Ratio T-47D (48 hr)” value stood at 12.5.

Take `CCN(c1ccc(OC)cc1)c1nc(Cl)nc2ccccc12` [Example 40, (2-Chloro-quinazolin-4-yl)-ethyl-(4-methoxy-phenyl)-amine]: the “Caspase activity Ratio T-47D (48 hr)” value is 6.1.

With `COc1ccc(Nc2nc(C)nc3ccccc23)nc1` [Example 137, (5-Methoxy-pyridin-2-yl)-(2-methyl-quinazolin-4-yl)-amine], the “Caspase activity Ratio T-47D (24 hr)” value is 1.2.

Consider `COc1ccc(N(C)c2nc(Cl)nc3[nH]cnc23)cc1` [Example 51, (2-Chloro-9H-purin-6-yl)-(4-methoxy-phenyl)-methyl-amine], for which the “Caspase activity Ratio T-47D (48 hr)” value is recorded as 0.9.

As for `CCOc1ccc(N(C)c2nc(Cl)nc3ccccc23)cc1` [Example 97, (2-Chloro-quinazolin-4-yl)-(4-ethoxy-phenyl)-methylamine], the “Caspase activity Ratio T-47D (48 hr)” value turned out to be 9.0.

Take `COc1ccc(N(C)c2nc(N3CCOCC3)nc3ccccc23)cc1` [Example 15]: the “Caspase activity Ratio T-47D (24 hr)” value was 5.7 and the “Caspase activity Ratio T-47D (48 hr)” value is given as 11.5.

For the molecule `COc1ccc(N(C)c2nc(NCCCN(C)C)nc3ccccc23)cc1` [Example 47, N^2-(3-Dimethylamino-propyl)-N^4-(4-methoxy-phenyl)-N^4-methyl-quinazoline-2,4-diamine], the “Caspase activity Ratio T-47D (48 hr)” value was 11.5.

As to `Cc1nc(N(C)c2ccc(N)cc2Br)c2ccccc2n1` [Example 104, (4-Amino-2-bromo-phenyl)-(2-methyl-quinazolin-4-yl)-methyl-amine], the “Caspase activity Ratio T-47D (24 hr)” value came to 8.6.

Turning to `Cc1nc(N(C)c2ccc(C(=O)O)cc2)c2ccccc2n1` [Example 116, 4-(N-Methyl-N-(2-methylquinazolin-4-yl)amino)benzoic Acid], the “Caspase activity Ratio T-47D (24 hr)” value turned out to be 1.0.

Turning to `CCc1ccc(Nc2nc(C)nc3ccccc23)cc1` [Example 81, (4-Ethyl-phenyl)-(2-methyl-quinazolin-4-yl)-amine], the “Caspase activity Ratio T-47D (24 hr)” value was 1.9.

For `CN(c1ccccc1)c1nc(N(C)c2ccccc2)c2ccccc2n1` [Example 18, N^2,N^4-Dimethyl-N^2,N^4-diphenyl-quinazoline-2,4-diamine], the “Caspase activity Ratio T-47D (24 hr)” value was 1.0 and the “Caspase activity Ratio T-47D (48 hr)” value was determined as 1.0.

On to `C[C@H]1CC[C@@H](Nc2nc(Cl)nc3ccccc23)CC1` [Example 130, (2-Chloro-quinazolin-4-yl)-(cis-4-methylcyclohexyl)-amine], for which the “Caspase activity Ratio T-47D (24 hr)” value is 1.2.

On to `COc1ccc(N(C)c2nc(C)nc3ncccc23)cc1` [Example 92, (4-Methoxy-phenyl)-(2-methyl-pyrido[2,3-d]pyrimidin-4-yl)-methyl-amine], for which the “Caspase activity Ratio T-47D (24 hr)” value is reported as 10.1.

(Values after patent publication US7618975B2, “4-arylamino-quinazolines and analogs as activators of caspases and inducers of apoptosis and the use thereof” (Myriad Pharmaceuticals, Inc., priority 2003, dated 2009).)
